In ChEMBL document CHEMBL5316318, “Structural Modification and Pharmacological Evaluation of Substituted Quinoline-5,8-diones as Potent NSD2 Inhibitors” (J Med Chem, 2023):

How the values were obtained:
[1] = molecular target: T1, Histone-lysine N-methyltransferase NSD2 (Homo sapiens, UniProt O96028); assay: Inhibition of recombinant human NSD2 (941 to 1240 residues) using SAM as substrate incubated for 3 hrs by AlphaLISA assay
T1 sequence (O96028 whole entry): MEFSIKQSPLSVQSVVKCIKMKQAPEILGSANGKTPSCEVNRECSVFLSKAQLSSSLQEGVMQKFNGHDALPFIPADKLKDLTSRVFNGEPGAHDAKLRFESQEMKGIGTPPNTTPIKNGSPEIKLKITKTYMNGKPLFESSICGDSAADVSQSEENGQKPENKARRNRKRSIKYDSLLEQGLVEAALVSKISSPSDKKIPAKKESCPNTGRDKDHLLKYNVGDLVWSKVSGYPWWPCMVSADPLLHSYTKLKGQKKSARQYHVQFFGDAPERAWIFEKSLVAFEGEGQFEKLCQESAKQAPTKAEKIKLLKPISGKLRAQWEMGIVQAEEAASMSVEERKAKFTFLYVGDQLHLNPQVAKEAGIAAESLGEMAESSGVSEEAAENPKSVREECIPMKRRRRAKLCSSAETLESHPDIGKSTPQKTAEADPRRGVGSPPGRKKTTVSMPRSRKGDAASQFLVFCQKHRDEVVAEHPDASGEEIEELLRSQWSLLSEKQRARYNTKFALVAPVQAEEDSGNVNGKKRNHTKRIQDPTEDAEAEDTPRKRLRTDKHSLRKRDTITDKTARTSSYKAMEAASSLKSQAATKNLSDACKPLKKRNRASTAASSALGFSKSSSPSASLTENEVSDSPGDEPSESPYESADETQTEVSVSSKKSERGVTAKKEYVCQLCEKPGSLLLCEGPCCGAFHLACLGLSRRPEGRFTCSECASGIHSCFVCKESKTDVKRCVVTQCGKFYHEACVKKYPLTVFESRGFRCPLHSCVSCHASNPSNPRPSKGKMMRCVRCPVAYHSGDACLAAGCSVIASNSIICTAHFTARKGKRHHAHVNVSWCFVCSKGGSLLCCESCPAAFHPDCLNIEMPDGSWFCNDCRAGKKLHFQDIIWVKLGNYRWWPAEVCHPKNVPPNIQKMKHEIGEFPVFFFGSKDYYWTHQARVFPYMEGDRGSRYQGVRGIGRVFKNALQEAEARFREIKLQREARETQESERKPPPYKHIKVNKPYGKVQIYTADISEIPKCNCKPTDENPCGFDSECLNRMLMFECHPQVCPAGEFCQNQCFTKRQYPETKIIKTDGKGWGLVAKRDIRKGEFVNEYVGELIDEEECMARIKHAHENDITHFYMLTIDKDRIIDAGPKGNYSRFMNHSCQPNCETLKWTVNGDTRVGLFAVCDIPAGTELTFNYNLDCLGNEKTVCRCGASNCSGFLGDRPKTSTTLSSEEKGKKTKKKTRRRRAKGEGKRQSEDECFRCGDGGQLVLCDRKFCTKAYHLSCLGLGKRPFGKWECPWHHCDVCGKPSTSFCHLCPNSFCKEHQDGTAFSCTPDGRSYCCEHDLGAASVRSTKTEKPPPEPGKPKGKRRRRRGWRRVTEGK

KMS-11 = assay: Antiproliferative activity against human KMS-11 cells assessed as inhibition of cell growth incubated for 6 days by CCK-8 assay; type: functional, cell-based; details: KMS-11, 144 h
[2] = Apparent permeability coefficient, Papp in MDCK cells; type: ADME, cell-based, Canis lupus familiaris; details: dog
[3] = molecular target: Histone-lysine N-methyltransferase EZH2 (Homo sapiens, UniProt Q15910); assay: Inhibition of EZH2 (unknown origin) using SAM as substrate preincubated for 10 mins followed by substrate addition and measured after 4 hrs by HTRF analysis
Sequence of Histone-lysine N-methyltransferase EZH2 (Q15910 whole entry, the tested form may be a part): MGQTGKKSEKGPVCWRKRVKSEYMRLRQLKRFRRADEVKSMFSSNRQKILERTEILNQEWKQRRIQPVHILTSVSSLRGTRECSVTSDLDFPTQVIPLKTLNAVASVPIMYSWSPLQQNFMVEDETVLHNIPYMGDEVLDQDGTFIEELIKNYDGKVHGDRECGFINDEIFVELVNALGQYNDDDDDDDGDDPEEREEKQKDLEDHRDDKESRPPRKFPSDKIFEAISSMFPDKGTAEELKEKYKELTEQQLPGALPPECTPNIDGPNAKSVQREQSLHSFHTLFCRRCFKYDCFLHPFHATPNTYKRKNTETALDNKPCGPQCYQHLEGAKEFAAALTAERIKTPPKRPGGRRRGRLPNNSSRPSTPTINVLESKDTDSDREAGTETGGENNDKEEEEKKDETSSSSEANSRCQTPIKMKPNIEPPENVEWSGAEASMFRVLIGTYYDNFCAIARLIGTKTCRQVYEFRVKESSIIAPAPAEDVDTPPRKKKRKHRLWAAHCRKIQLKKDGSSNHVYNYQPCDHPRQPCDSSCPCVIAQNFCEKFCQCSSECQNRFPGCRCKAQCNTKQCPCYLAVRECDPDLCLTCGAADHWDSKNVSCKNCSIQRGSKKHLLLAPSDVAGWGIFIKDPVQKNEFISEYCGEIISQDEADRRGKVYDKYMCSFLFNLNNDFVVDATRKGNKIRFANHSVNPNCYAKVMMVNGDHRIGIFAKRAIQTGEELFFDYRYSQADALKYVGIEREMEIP

[4] = molecular target: T1, Histone-lysine N-methyltransferase NSD2; assay: Inhibition of human NSD2 SET domain (948 to 1239 residues)-mediated mono-methylation activity assessed as reduction in H3K36me1 level incubated for 1 hr
[5] = molecular target: T1, Histone-lysine N-methyltransferase NSD2; assay: Inhibition of human MMSET (973 to 1203 residues) expressed in Escherichia coli BL21 (DE3) using S-adenosyl-methionine as substrate incubated for 60 mins by AlphaScreen assay
[6] = molecular target: T1, Histone-lysine N-methyltransferase NSD2; assay: Inhibition of human NSD2 SET domain-mediated H3K36 methylation using histone H3 as substrate by colorimetric analysis

SMILES	IC50 [1] [nM]	other results
CC#CC(=O)NC12CC(NC3=C(Cl)C(=O)c4cccnc4C3=O)(C1)C2	250	IC50 (KMS-11): 2210 nM; Papp [2]: 42 ×10⁻⁶ cm/s; IC50 [3]: 1040 nM
COc1cc2nc(N3CCCN(C)CC3)nc(NC3CCN(Cc4ccccc4)CC3)c2cc1OC	–	IC50 [4]: 41000 nM
CC(F)(F)C(=O)NC12CC(NC3=C(Cl)C(=O)c4cccnc4C3=O)(C1)C2	300	IC50 (KMS-11): 2400 nM; Papp [2]: 44.4 ×10⁻⁶ cm/s
CC(F)(F)C(=O)N1CCC2(CC1)CN(C1=C(Cl)C(=O)c3cccnc3C1=O)C2	330	–
O=C1C(Cl)=C(NC2CCc3ccccc32)C(=O)c2ncccc21 (stereo unspecified)	210	IC50 (KMS-11): 2520 nM; Papp [2]: 28.8 ×10⁻⁶ cm/s
O=C1C(NC2CCc3ccccc32)=C(Cl)C(=O)c2ncccc21 (stereo unspecified)	450	–
CCCN[C@@H](CC[C@H](N)C(=O)O)C[C@H]1O[C@@H](n2cnc3c(N)ncnc32)[C@H](O)[C@@H]1O	–	IC50 [5]: 3300 nM
O=C1C(NC23CC(NC(=O)C4CC4(F)F)(C2)C3)=C(Cl)C(=O)c2ncccc21 (stereo unspecified)	1460	–
O=C1C(Cl)=C(NC23CC(NC(=O)C4CC4(F)F)(C2)C3)C(=O)c2ncccc21 (stereo unspecified)	410	–
O=C1O[C@@H](C(=O)N2CCN(Cc3nc4sc5c(c4c(=O)[nH]3)CCCC5)CC2)Cc2ccccc21	–	IC50 [6]: 132000 nM

Second part, led by results:

IC50 [1] [nM]	SMILES	other results
990	C[C@@](O)(C(=O)N1CCC(O)(CCNC2=C(Cl)C(=O)c3ncccc3C2=O)CC1)C(F)(F)F	–
420	C[C@@](O)(C(=O)NC12CC(NC3=C(Cl)C(=O)c4cccnc4C3=O)(C1)C2)C(F)(F)F	–
380	CC(F)(F)C(=O)NCCC1CN(C2=C(Cl)C(=O)c3cccnc3C2=O)C1	–
490	CC#CC(=O)NCCC1CCN(C2=C(Cl)C(=O)c3ncccc3C2=O)CC1	–
1290	C[C@@](O)(C(=O)NC12CC(NC3=CC(=O)c4ncccc4C3=O)(C1)C2)C(F)(F)F	–
1310	CC(C)(O)[C@H](F)CNC1=C(Cl)C(=O)c2ncccc2C1=O	–
1710	CC#CC(=O)NCCC1CCN(C2=C(Cl)C(=O)c3cccnc3C2=O)CC1	–
380	CC(F)(F)C(=O)NCCC1CN(C2=C(Cl)C(=O)c3ncccc3C2=O)C1	–
490	O=C1C(NCCN2CCOCC2)=C(Cl)C(=O)c2ncccc21	–
250	CC(C)(O)[C@H](F)CNC1=C(Cl)C(=O)c2ccc(Cl)nc2C1=O	IC50 (KMS-11): 6070 nM; Papp [2]: 29 ×10⁻⁶ cm/s
> 10000	CC(C)(O)[C@H](F)CNC1=C(Cl)C(=O)c2ccc(N3CC(O)C3)nc2C1=O	–
2340	CC(F)(F)C(=O)NCCC1CCN(C2=C(Cl)C(=O)c3cccnc3C2=O)CC1	–
